Measurements from patent EP1769804B1, “hPTH(1-34) for use in preventing or reducing the incidence or severity of vertebral and / or non vertebral fracture in a male human” (priority 1998, dated 2012).
Marks after values point to notes of the source that are not given here.

Experiments:
[1] = tested on: ovariectomized cynomolgus primates; test: Iliac biopsy histomorphometry (cancellous bone); assay type: in vivo, Macaca fascicularis
From the text: (§1) All animals were euthanized after 18 months.

Ovariectomized Primates [2] = test: Biomechanical measures of strength in the spine (lumbar vertebrae L-3 and L-4); assay type: in vivo, Macaca fascicularis; details: for A (cross-sectional area) / E (Young's modulus) / Fy (yield force) / S (stiffness): L-3 and L-4 combined, mean ± SEM
From the text: (§2) Biomechanical tests were done on lumbar vertebrae L-3 to L-4, the femur neck, humerus midshaft, and on a cortical bone specimen machined from the femur diaphysis (measures defined in Table 2). Conventional static and dynamic histomorphometry were done (measures described in Table 6) on the humerus midshaft, lumbar vertebra L-2, femoral neck, femur midshaft, the radius midshaft and distal radius. Initial statistical analyses compared all groups to vehicle-treated ovariectomized controls. The data is suitable for additional exploratory analyses to examine dose dependency, effects of withdrawal, interactions between outcomes, and changes in time by methods known to those of skill in the art. All assays were conducted and determined by methods known in the art.

[3] = tested on: cortical bone of the humerus; test: Histomorphometry and polarized Fourier transform infrared microscopy of humerus cortical bone; assay type: in vivo, Macaca fascicularis
Method: (§3) For certain experimental subjects, cortical bone of the humerus was examined by histomorphometry and by polarized Fourier transform infrared microscopy. The Fourier transform infrared microscopy was conducted by an adaptation of known methods for such microscopy.

[4] = tested on: ovariectomized cynomolgus primates; test: Serum and urine measures in the primate study; assay type: in vivo, Macaca fascicularis
From the text: as §1

Ovariectomized Primates [5] = test: Biomechanical measure of strength of femur neck; assay type: in vivo, Macaca fascicularis; design: Fa, Proximal femur neck: unit not given here; details: for Fa, Proximal femur neck: mean ± SEM
From the text: as §2

post-menopausal women = test: Clinical trial: number of non-vertebral fractures; assay type: in vivo, Humans
Ovariectomized Primates [6] = test: Cortical histomorphometry of the humerus midshaft; assay type: in vivo, Macaca fascicularis; details: PTH1-W: withdrawal after 1 µg/kg for 12 months; mean ± SEM
From the text: as §2, §3

[7] = PTH1-W: withdrawal for 6 months after 1 µg/kg for 12 months
[8] = PTH5-W: withdrawal for 6 months after 5 µg/kg for 12 months
[9] = compared to ovariectomized controls
[10] = compared to ovariectomized, 24 hours after injection

For teriparatide [rhPTH(1-34)], the “mineralization, activation frequency, or remodeling periods” value ([1]; iliac biopsy) was “did not affect”, the cancellous bone area ([1]; iliac biopsy at 15 months, compared to ovariectomized) was “increased cancellous bone area” and the “A (cross-sectional area)” value (Ovariectomized Primates [2]; [7]) was 90.9±2.3 mm^2. The “E (Young's modulus)” value (Ovariectomized Primates [2]; [7]) was 659±42 Mpa, the “Fy (yield force)” value (Ovariectomized Primates [2]; [7]) was 1899±73^a N and the “S (stiffness)” value (Ovariectomized Primates [2]; [7]) was 7401±432^a N/mm. The “E (Young's modulus)” value (Ovariectomized Primates [2]; PTH1: 1 µg/kg for 18 months) was 717±48^a Mpa, the “Fy (yield force)” value (Ovariectomized Primates [2]; PTH1: 1 µg/kg for 18 months) was 1915±105^a N and the “S (stiffness)” value (Ovariectomized Primates [2]; PTH1: 1 µg/kg for 18 months) was 7701 ± 474^a N/mm. The “A (cross-sectional area)” value (Ovariectomized Primates [2]; [8]) was 82.8±2.1 mm^2, the “E (Young's modulus)” value (Ovariectomized Primates [2]; [8]) was 698±41^a Mpa and the “Fy (yield force)” value (Ovariectomized Primates [2]; [8]) was 1792±39^a N. The “S (stiffness)” value (Ovariectomized Primates [2]; [8]) was 7074±314^a N/mm, the “A (cross-sectional area)” value (Ovariectomized Primates [2]; PTH5: 5 µg/kg for 18 months) was 87.3±2.7 mm^2 and the “E (Young's modulus)” value (Ovariectomized Primates [2]; PTH5: 5 µg/kg for 18 months) was 759±36^a Mpa. For the same substance, the “Fy (yield force)” value (Ovariectomized Primates [2]; PTH5: 5 µg/kg for 18 months) was 2113±77^3.0 N, the “S (stiffness)” value (Ovariectomized Primates [2]; PTH5: 5 µg/kg for 18 months) was 8012 ±367^a N/mm and the “increase of strength (Fy) in the vertebrae” value (Ovariectomized Primates [2]; [9]) was “up to 43%”. For the same substance, the “bone quality (crystallites)” value [3] was “improved bone quality by replacing old bone (large crystallites) with young bone”, the “serum total alkaline phosphatase (ALP) and osteocalcin” value ([4]; bone formation markers) was “restored levels back to sham values” and the “1,25-dihydroxyvitamin D” value [4, 10] was “higher”. For the same substance, the “endogenous PTH” value [4, 10] was “lower”, the serum phosphate [4, 10] was “lower” and the “urinary cAMP” value [4, 10] was “higher”. The “Urinary C-telopeptide (CrossLaps) excretion” value ([4]; marker of bone resorption, compared to ovariectomized controls) was “not altered”, the “Fa, Proximal femur neck” value (Ovariectomized Primates [5]; PTH1-W: withdrawal after 1 µg/kg for 12 months) was 1258 ± 52^a and the “Fa, Proximal femur neck” value (Ovariectomized Primates [5]; PTH1: 1 µg/kg for 18 months) was 1235 ± 43^a. For the same substance, the “Fa, Proximal femur neck” value (Ovariectomized Primates [5]; PTH5-W: withdrawal after 5 µg/kg for 12 months) was 1213 ± 42, the “Fa, Proximal femur neck” value (Ovariectomized Primates [5]; PTH5: 5 µg/kg for 18 months) was 1362 ± 30^a and the “improvement of strength in the femur neck (fu)” value (Ovariectomized Primates [5]; [9]) was “up to 12%”. For the same substance, the “number of non-vertebral fractures, Ankle” value (post-menopausal women; PTH-20 (N=541)) was 2, the “number of non-vertebral fractures, Foot” value (post-menopausal women; PTH-20 (N=541)) was 1 and the “number of non-vertebral fractures, Hip” value (post-menopausal women; PTH-20 (N=541)) was 2. For the same substance, the “number of non-vertebral fractures, Humerus” value (post-menopausal women; PTH-20 (N=541)) was 4, the “number of non-vertebral fractures, Other” value (post-menopausal women; PTH-20 (N=541)) was 14 and the “number of non-vertebral fractures, Pelvis” value (post-menopausal women; PTH-20 (N=541)) was 1. The “number of non-vertebral fractures, Radius” value (post-menopausal women; PTH-20 (N=541)) was 7, the “number of non-vertebral fractures, Ribs” value (post-menopausal women; PTH-20 (N=541)) was 5 and the “number of non-vertebral fractures, Total” value (post-menopausal women; PTH-20 (N=541)) was 34. For the same substance, the “number of non-vertebral fractures, Total w/o "Other"” value (post-menopausal women; PTH-20 (N=541)) was 21, the “number of non-vertebral fractures, Ankle” value (post-menopausal women; PTH-40 (N=552)) was 2 and the “number of non-vertebral fractures, Foot” value (post-menopausal women; PTH-40 (N=552)) was 4. For the same substance, the “number of non-vertebral fractures, Hip” value (post-menopausal women; PTH-40 (N=552)) was 3, the “number of non-vertebral fractures, Humerus” value (post-menopausal women; PTH-40 (N=552)) was 3 and the “number of non-vertebral fractures, Other” value (post-menopausal women; PTH-40 (N=552)) was 9. The “number of non-vertebral fractures, Pelvis” value (post-menopausal women; PTH-40 (N=552)) was 0, the “number of non-vertebral fractures, Radius” value (post-menopausal women; PTH-40 (N=552)) was 10 and the “number of non-vertebral fractures, Ribs” value (post-menopausal women; PTH-40 (N=552)) was 5. For the same substance, the “number of non-vertebral fractures, Total” value (post-menopausal women; PTH-40 (N=552)) was 32, the “number of non-vertebral fractures, Total w/o "Other"” value (post-menopausal women; PTH-40 (N=552)) was 24 and the “Ac.F (Activation frequency)” value (Ovariectomized Primates [6]) was 3.05 ± 2.15^a cycles/year. For the same substance, the “B.Ar (Bone area, the total area within the periosteal surface)” value (Ovariectomized Primates [6]) was 54.94 ± 6.55 mm^2, the “BFR/BS.Ec (bone formation rate, endocortical surface referent)” value (Ovariectomized Primates [6]) was 14.89 ± 10.32 µm/day and the “BFR/BS.Ps (Bone formation rate, periosteal surface referent)” value (Ovariectomized Primates [6]) was 3.60 ± 3.84^a µm/day. The “BFR/BV (Bone formation rate, bone volume referent)” value (Ovariectomized Primates [6]) was 4.39 ± 3.48^a %/year, the “Ct.Ar (Cortical area)” value (Ovariectomized Primates [6]) was 38.10 ± 4.83 mm^2 and the “FP (Formation period)” value (Ovariectomized Primates [6]) was 64.94 ± 11.99 days. For the same substance, the “L.On.N/Ct.A (Number of fluorochrome labeled osteons per unit cortical area)” value (Ovariectomized Primates [6]) was 0.50 ± 0.36^a #/mm^2, the “MAR (Mineral apposition rate, intracortical)” value (Ovariectomized Primates [6]) was 1.06 ± 0.27 µm/day and the “MAR.Ec (Mineral apposition rate, endocortical surface)” value (Ovariectomized Primates [6]) was 0.66 ± 0.16 µm/day. For the same substance, the “MAR.Ps (mineral apposition rate, periosteal surface)” value (Ovariectomized Primates [6]) was 0.54 ± 0.15^a µm/day and the “MS/BS.Ec (mineralizing endocortical surface normalized to total endocortical surface)” value (Ovariectomized Primates [6]) was 11.74 ± 14.41^a %.
